These results are taken from patent publication US20050227989A1, “Polycyclic thiazoles as potassium ion channel modulators” (ICAgen, Inc., priority 2004, published 2005).

Where two headings read alike, the source gives them in different places. Where only a bound is given, the exact number is not on record here.

The target of assay [1] is hSK2 (Homo sapiens, UniProt Q9H2S1). The experiment in a line: 86Rb+ efflux assay for compound activity towards hSK channels. Conditions: read-out: hSK2 Inhibitory Activity. It counts as cell-based.
For assay [2], the target named is T1, recombinant human SK4 (hIK1 or hKCa4) channels (Homo sapiens, UniProt O15554+P0DP23).
T1 construct: host or cells: HEK 293
Conditions: applied to the inside of SK4 channel-expressing membrane patches; cited from earlier work.

[3] abbreviates: 86Rb+ efflux stimulated with calcium ionophore, drug 0.01 to 30 μM in EBSS.

Turning to `O=C1CCCN1c1ccc(Nc2nc(-c3cnccn3)cs2)nc1` [1-[6-(4-Pyrazin-2-yl-thiazol-2-ylamino)-pyridin-3-yl]-pyrrolidin-2-one], the IC50 in assay [1] (setting [3]) is less than 30 nM. Same read-out and setting: in the case of `O=C1CCCN1c1ccc(Nc2nc(-c3nccs3)cs2)nc1` [1-[6-([2,4′]Bithiazolyl-2′-ylamino)-pyridin-3-yl]-pyrrolidin-2-one] it was 30 to 100 nM; in that of `CN1CCN(c2ccc(Nc3nc(-c4cnccn4)cs3)nc2)C(=O)C1` [4-Methyl-1-[6-(4-pyrazin-2-yl-thiazol-2-ylamino)-pyridin-3-yl]-piperazin-2-one], 1000 to 30000 nM; in that of `CN1CCN(c2ccc(Nc3nc(-c4ccccn4)cs3)nc2)C(=O)C1` [4-Methyl-1-[6-(4-pyridin-2-yl-thiazol-2-ylamino)-pyridin-3-yl]-piperazin-2-one], 1000 to 30000 nM.

For the compound `COC(=O)c1ccc(Nc2nc(-c3ccccn3)cs2)nc1` [6-(4-Pyridin-2-yl-thiazol-2-ylamino)-nicotinic acid methyl ester], the IC50 in assay [1] (setting [3]) is 1000 to 30000 nM. On the same count and under the same terms, in the case of `c1ccc(-c2csc(Nc3nc4ccccc4[nH]3)n2)nc1` [(1H-Benzoimidazol-2-yl)-(4-pyridin-2-yl-thiazol-2-yl)-amine] it was 100 to 1000 nM; in that of `Cc1cnc(Nc2nc(-c3ccccn3)cs2)c(Br)c1` [(3-Bromo-5-methyl-pyridin-2-yl)-(4-pyridin-2-yl-thiazol-2-yl)-amine], 1000 to 30000 nM; in that of `Cc1cc(C)nc(Nc2nc(-c3ccccn3)cs2)c1` [(4,6-Dimethyl-pyridin-2-yl)-(4-pyridin-2-yl-thiazol-2-yl)-amine], 1000 to 30000 nM.

Regarding `CC1CCN(c2ccc(Nc3nc(-c4ccccn4)cs3)nc2)CC1` [(4-Methyl-3,4,5,6-tetrahydro-2H-[1,3′]bipyridinyl-6′-yl)-(4-pyridin-2-yl-thiazol-2-yl)-amine], the IC50 in assay [1] (setting [3]) lay in the range of 30 to 100 nM. Still for that read-out and setting: under `Cc1ccnc(Nc2nc(-c3cnccn3)cs2)c1` [(4-Methyl-pyridin-2-yl)-(4-pyrazin-2-yl-thiazol-2-yl)-amine] stands 30 to 100 nM; under `Cc1ccnc(Nc2nc(-c3cc(C)ccn3)cs2)c1` [(4-Methyl-pyridin-2-yl)-[4-(4-methyl-pyridin-2-yl)-thiazol-2-yl]-amine], 30 to 100 nM.

With `FC(F)(F)c1ccc(Nc2nc(-c3ccccn3)cs2)nc1` [(4-Pyridin-2-yl-thiazol-2-yl)-(5-trifluoromethyl-pyridin-2-yl)-amine], in assay [1] (setting [3]), the IC50 lay in the range of 1000 to 30000 nM. Consider `c1ccc(-c2csc(Nc3ncccn3)n2)nc1` [(4-Pyridin-2-yl-thiazol-2-yl)-pyrimidin-2-yl-amine], for which the IC50 in assay [1] was in the range of 1000 to 30000 nM. For the compound `c1ccc(-c2csc(Nc3nccs3)n2)nc1` [(4-Pyridin-2-yl-thiazol-2-yl)-thiazol-2-yl-amine], the IC50 in assay [1] (setting [3]) was in the range of 1000 to 30000 nM.

For the compound `Brc1sc(Nc2ccccn2)nc1-c1ccccn1` [(5-Bromo-4-pyridin-2-yl-thiazol-2-yl)-pyridin-2-yl-amine], in assay [1] (setting [3]), the IC50 was in the range of 1000 to 30000 nM. Regarding `Brc1ccc(Nc2nc(-c3ccccn3)cs2)nc1` [(5-Bromo-pyridin-2-yl)-(4-pyridin-2-yl-thiazol-2-yl)-amine], the IC50 in assay [1] (setting [3]) was in the range of 1000 to 30000 nM. Same read-out and setting: in the case of `Cc1ccnc(Nc2nc(-c3ccccn3)c(Cl)s2)c1` [(5-Chloro-4-pyridin-2-yl-thiazol-2-yl)-(4-methyl-pyridin-2-yl)-amine] it was 100 to 1000 nM; in that of `Fc1ccc(Nc2nc(-c3ccccn3)cs2)nc1` [(5-Fluoro-pyridin-2-yl)-(4-pyridin-2-yl-thiazol-2-yl)-amine], 1000 to 30000 nM; in that of `CCCCCCc1ccc(Nc2nc(-c3ccccn3)cs2)nc1` [(5-Hexyl-pyridin-2-yl)-(4-pyridin-2-yl-thiazol-2-yl)-amine], 1000 to 30000 nM. The same measure, in the same setting: in the case of `Cc1cc(I)cnc1Nc1nc(-c2ccccn2)cs1` [(5-Iodo-3-methyl-pyridin-2-yl)-(4-pyridin-2-yl-thiazol-2-yl)-amine] it was 100 to 1000 nM; in that of `Cc1cc(Nc2nc(-c3ccccn3)cs2)ncc1I` [(5-Iodo-4-methyl-pyridin-2-yl)-(4-pyridin-2-yl-thiazol-2-yl)-amine], 100 to 1000 nM; in that of `C=C(C)c1ccc(Nc2nc(-c3cnccn3)cs2)nc1` [(5-Isopropenyl-pyridin-2-yl)-(4-pyrazin-2-yl-thiazol-2-yl)-amine], 100 to 1000 nM. Same read-out and setting: under `CC(C)c1ccc(Nc2nc(-c3cnccn3)cs2)nc1` [(5-Isopropyl-pyridin-2-yl)-(4-pyrazin-2-yl-thiazol-2-yl)-amine] stands 1000 to 30000 nM; under `CC(C)c1ccc(Nc2nc(-c3ccccn3)cs2)nc1` [(5-Isopropyl-pyridin-2-yl)-(4-pyridin-2-yl-thiazol-2-yl)-amine], 30 to 100 nM. For `COc1sc(Nc2ccccn2)nc1-c1ccccn1` [(5-Methoxy-4-pyridin-2-yl-thiazol-2-yl)-pyridin-2-yl-amine], in assay [1] (setting [3]), the IC50 is 1000 to 30000 nM. Same read-out and setting: in the case of `Cc1sc(Nc2ccccn2)nc1-c1ccccn1` [(5-Methyl-4-pyridin-2-yl-thiazol-2-yl)-pyridin-2-yl-amine] it was less than 30 nM; in that of `Cc1ccc(Nc2nc(-c3cnccn3)cs2)nc1` [(5-Methyl-pyridin-2-yl)-(4-pyrazin-2-yl-thiazol-2-yl)-amine], 30 to 100 nM; in that of `CSc1sc(Nc2ccccn2)nc1-c1ccccn1` [(5-Methylsulfanyl-4-pyridin-2-yl-thiazol-2-yl)-pyridin-2-yl-amine], 1000 to 30000 nM. For `c1ccc(-c2csc(Nc3ccc(N4CCOCC4)cn3)n2)nc1` [(5-Morpholin-4-yl-pyridin-2-yl)-(4-pyridin-2-yl-thiazol-2-yl)-amine], the IC50 in assay [1] (setting [3]) is 30 to 100 nM. Still for that read-out and setting: under `c1ccc(-c2ccc(Nc3nc(-c4ccccn4)cs3)nc2)cc1` [(5-Phenyl-pyridin-2-yl)-(4-pyridin-2-yl-thiazol-2-yl)-amine] stands 1000 to 30000 nM; under `CC(C)(C)c1ccc(Nc2nc(-c3ccccn3)cs2)nc1` [(5-tert-Butyl-pyridin-2-yl)-(4-pyridin-2-yl-thiazol-2-yl)-amine], 1000 to 30000 nM. As to `[Ba+2]` [Barium], the “activation of SK4 channels” value in assay [2] is given as “activated SK4 channels in a concentration-dependent manner”. On to `c1ccc(Nc2csc(Nc3ccccn3)n2)nc1` [N^2,N^4-Di-pyridin-2-yl-thiazole-2,4-diamine], for which the IC50 in assay [1] (setting [3]) fell in the range of 1000 to 30000 nM. Same read-out and setting: in the case of `Nc1ccc(Nc2nc(-c3nccs3)cs2)nc1` [N^2-[2,4′]Bithiazolyl-2′-yl-pyridine-2,5-diamine] it was 30 to 100 nM. For `c1ccc(Nc2nc(-c3ccccn3)cs2)nc1` [Pyridin-2-yl-(4-pyridin-2-yl-thiazol-2-yl)-amine], the IC50 in assay [1] (setting [3]) was less than 30 nM. As to `c1ccc(Nc2nc(-c3cccs3)cs2)nc1` [Pyridin-2-yl-(4-thiophen-2-yl-thiazol-2-yl)-amine], the IC50 in assay [1] (setting [3]) lay within 1000 to 30000 nM. On the same count and under the same terms, in the case of `Cc1ccnc(Nc2nc(-c3nccs3)cs2)c1` [[2,4′]Bithiazolyl-2′-yl-(4-methyl-pyridin-2-yl)-amine] it was 100 to 1000 nM. As to `Brc1ccc(Nc2nc(-c3nccs3)cs2)nc1` [[2,4′]Bithiazolyl-2′-yl-(5-bromo-pyridin-2-yl)-amine], the IC50 in assay [1] (setting [3]) is 1000 to 30000 nM. As to `Clc1ccc(Nc2nc(-c3nccs3)cs2)nc1` [[2,4′]Bithiazolyl-2′-yl-(5-chloro-pyridin-2-yl)-amine], the IC50 in assay [1] (setting [3]) is 1000 to 30000 nM. For the compound `C=C(C)c1ccc(Nc2nc(-c3nccs3)cs2)nc1` [[2,4′]Bithiazolyl-2′-yl-(5-isopropenyl-pyridin-2-yl)-amine], the IC50 in assay [1] (setting [3]) is 1000 to 30000 nM. On to `CC(C)c1ccc(Nc2nc(-c3nccs3)cs2)nc1` [[2,4′]Bithiazolyl-2′-yl-(5-isopropyl-pyridin-2-yl)-amine], for which the IC50 in assay [1] (setting [3]) lay within 1000 to 30000 nM. On the same count and under the same terms, under `COc1ccc(Nc2nc(-c3nccs3)cs2)nc1` [[2,4′]Bithiazolyl-2′-yl-(5-methoxy-pyridin-2-yl)-amine] stands 100 to 1000 nM; under `c1csc(-c2csc(Nc3ccc(N4CCOCC4)cn3)n2)n1` [[2,4′]Bithiazolyl-2′-yl-(5-morpholin-4-yl-pyridin-2-yl)-amine], 100 to 1000 nM; under `O=[N+]([O-])c1ccc(Nc2nc(-c3nccs3)cs2)nc1` [[2,4′]Bithiazolyl-2′-yl-(5-nitro-pyridin-2-yl)-amine], 1000 to 30000 nM.

Turning to `c1csc(-c2ccc(Nc3nc(-c4nccs4)cs3)nc2)c1` [[2,4′]Bithiazolyl-2′-yl-(5-thiophen-2-yl-pyridin-2-yl)-amine], the IC50 in assay [1] (setting [3]) was in the range of 1000 to 30000 nM.

Turning to `CN1CCN(c2ccc(Nc3nc(-c4nccs4)cs3)nc2)CC1` [[2,4′]Bithiazolyl-2′-yl-[5-(4-methyl-piperazin-1-yl)-pyridin-2-yl]-amine], the IC50 in assay [1] (setting [3]) fell in the range of 1000 to 30000 nM.

On to `c1cncc(-c2ccc(Nc3nc(-c4nccs4)cs3)nc2)c1` [[3,3′]Bipyridinyl-6-yl-[2,4′]bithiazolyl-2′-yl-amine], for which the IC50 in assay [1] (setting [3]) is 1000 to 30000 nM. Still for that read-out and setting: under `Cc1ccnc(Nc2nc(-c3c(C)nc4cc(C)ccn34)cs2)c1` [[4-(2,7-Dimethyl-imidazo[1,2-a]pyridin-3-yl)-thiazol-2-yl]-(4-methyl-pyridin-2-yl)-amine] stands 1000 to 30000 nM; under `Cc1ccnc(Nc2nc(-c3c(C)nc4ccccn34)cs2)c1` [[4-(2-Methyl-imidazo[1,2-a]pyridin-3-yl)-thiazol-2-yl]-(4-methyl-pyridin-2-yl)-amine], 1000 to 30000 nM; under `Cc1ccnc(Nc2nc(-c3c(C)nc4ncccn34)cs2)c1` [[4-(2-Methyl-imidazo[1,2-a]pyrimidin-3-yl)-thiazol-2-yl]-(4-methyl-pyridin-2-yl)-amine], 1000 to 30000 nM. Regarding `[Cd]` [cadmium], the “activation of SK4 channels” value in assay [2] is “activated SK4 channels in a concentration-dependent manner”. For `[Ca+2]` [calcium], the “activation of SK4 channels” value in assay [2] is “activated SK4 channels in a concentration-dependent manner”.

With `[Co+2]` [cobalt], the “activation of SK4 channels” value in assay [2] is “did not activate”.

On to “[(4-Methyl-pyridin-2-yl)-(4-pyridin-2-yl-thiazol-2-yl)-amine]2 Fe(II) nH2ClO4 Complex”, for which the IC50 in assay [1] (setting [3]) was less than 30 nM. On the same count and under the same terms, in the case of “[(4-Methyl-pyridin-2-yl)-(4-pyridin-2-yl-thiazol-2-yl)-amine]2 Zn(II) nHCl Complex” it was less than 30 nM.
